Results as given in ChEMBL document CHEMBL3227994, “Novel application of proton nuclear magnetic resonance spectroscopy in the identification of 2'-chloronordiazepam metabolites in the dog” (J Med Chem, 1979).

Key:
[1] = Drug excretion in Beagle dog urine at 10 mg/kg, po measured within 6 days by liquid scintillation spectrophotometric analysis; assay type: ADME, organism-based, Canis lupus familiaris; set-up: dose 10 mg/kg, route oral; details: in vivo, 144 h
[2] = Drug excretion in Beagle dog feces at 10 mg/kg, po measured within 6 days by liquid scintillation spectrophotometric analysis; assay type: ADME, organism-based, Canis lupus familiaris; set-up: dose 10 mg/kg, route oral; details: in vivo, 144 h
[3] = Drug excretion in Beagle dog urine at 10 mg/kg, po measured within 3 days by liquid scintillation spectrophotometric analysis; assay type: ADME, organism-based, Canis lupus familiaris; set-up: dose 10 mg/kg, route oral; details: in vivo, 72 h
[4] = Drug metabolism in Beagle dog urine assessed as formation of lorazepam at 10 mg/kg, po after 4 days by TLC analysis; assay type: ADME, organism-based, Canis lupus familiaris; set-up: dose 10 mg/kg, route oral; details: in vivo, 96 h
[5] = Drug metabolism in Beagle dog urine assessed as formation of 2'-chloro-4'-hydroxy nordiazepam at 10 mg/kg, po after 4 days by TLC analysis; assay type: ADME, organism-based, Canis lupus familiaris; set-up: dose 10 mg/kg, route oral; details: in vivo, 96 h
[6] = Drug metabolism in Beagle dog urine assessed as formation of 2'-chloro-9-hydroxy nordiazepam at 10 mg/kg, po after 4 days by TLC analysis; assay type: ADME, organism-based, Canis lupus familiaris; set-up: dose 10 mg/kg, route oral; details: in vivo, 96 h
[7] = Drug excretion in Beagle dog urine assessed as nonconjugated form of compound at 10 mg/kg, po after 4 days by two-dimensional TLC analysis; assay type: ADME, organism-based, Canis lupus familiaris; set-up: dose 10 mg/kg, route oral; details: read-out: Drug excretion
[8] = Drug excretion in Beagle dog urine assessed as nonconjugated form of lorazepam at 10 mg/kg, po after 4 days by two-dimensional TLC analysis; assay type: ADME, organism-based, Canis lupus familiaris; set-up: dose 10 mg/kg, route oral; details: in vivo, 96 h
[9] = Drug excretion in Beagle dog urine assessed as conjugated form of lorazepam at 10 mg/kg, po after 4 days by two-dimensional TLC analysis; assay type: ADME, organism-based, Canis lupus familiaris; set-up: dose 10 mg/kg, route oral; details: in vivo, 96 h
[10] = Drug excretion in Beagle dog urine assessed as nonconjugated form of 2'-chloro-4'-hydroxy nordiazepam at 10 mg/kg, po after 4 days by two-dimensional TLC analysis; assay type: ADME, organism-based, Canis lupus familiaris; set-up: dose 10 mg/kg, route oral; details: in vivo, 96 h
[11] = Drug excretion in Beagle dog urine assessed as conjugated form of 2'-chloro-4'-hydroxy nordiazepam at 10 mg/kg, po after 4 days by two-dimensional TLC analysis; assay type: ADME, organism-based, Canis lupus familiaris; set-up: dose 10 mg/kg, route oral; details: in vivo, 96 h
[12] = Drug excretion in Beagle dog urine assessed as nonconjugated form of 2'-chloro-9-hydroxy nordiazepam at 10 mg/kg, po after 4 days by two-dimensional TLC analysis; assay type: ADME, organism-based, Canis lupus familiaris; set-up: dose 10 mg/kg, route oral; details: in vivo, 96 h
[13] = Drug excretion in Beagle dog urine assessed as conjugated form of 2'-chloro-9-hydroxy nordiazepam at 10 mg/kg, po after 4 days by two-dimensional TLC analysis; assay type: ADME, organism-based, Canis lupus familiaris; set-up: dose 10 mg/kg, route oral; details: in vivo, 96 h
[14] = Drug excretion in Beagle dog feces assessed as nonconjugated form of compound at 10 mg/kg, po after 4 days by two-dimensional TLC analysis; assay type: ADME, organism-based, Canis lupus familiaris; set-up: dose 10 mg/kg, route oral; details: faeces, read-out: Drug excretion
[15] = Drug excretion in Beagle dog feces assessed as conjugated form of compound at 10 mg/kg, po after 4 days by two-dimensional TLC analysis; assay type: ADME, organism-based, Canis lupus familiaris; set-up: dose 10 mg/kg, route oral; details: in vivo, 96 h
[16] = Drug excretion in Beagle dog feces assessed as nonconjugated form of lorazepam at 10 mg/kg, po after 4 days by two-dimensional TLC analysis; assay type: ADME, organism-based, Canis lupus familiaris; set-up: dose 10 mg/kg, route oral; details: in vivo, 96 h
[17] = Drug excretion in Beagle dog feces assessed as conjugated form of lorazepam at 10 mg/kg, po after 4 days by two-dimensional TLC analysis; assay type: ADME, organism-based, Canis lupus familiaris; set-up: dose 10 mg/kg, route oral; details: in vivo, 96 h
[18] = Drug excretion in Beagle dog feces assessed as nonconjugated form of 2'-chloro-4'-hydroxy nordiazepam at 10 mg/kg, po after 4 days by two-dimensional TLC analysis; assay type: ADME, organism-based, Canis lupus familiaris; set-up: dose 10 mg/kg, route oral; details: in vivo, 96 h
[19] = Drug excretion in Beagle dog feces assessed as conjugated form of 2'-chloro-4'-hydroxy nordiazepam at 10 mg/kg, po after 4 days by two-dimensional TLC analysis; assay type: ADME, organism-based, Canis lupus familiaris; set-up: dose 10 mg/kg, route oral; details: in vivo, 96 h
[20] = Drug excretion in Beagle dog feces assessed as nonconjugated form of 2'-chloro-9-hydroxy nordiazepam at 10 mg/kg, po after 4 days by two-dimensional TLC analysis; assay type: ADME, organism-based, Canis lupus familiaris; set-up: dose 10 mg/kg, route oral; details: in vivo, 96 h
[21] = Drug excretion in Beagle dog feces assessed as conjugated form of 2'-chloro-9-hydroxy nordiazepam at 10 mg/kg, po after 4 days by two-dimensional TLC analysis; assay type: ADME, organism-based, Canis lupus familiaris; set-up: dose 10 mg/kg, route oral; details: in vivo, 96 h
[22] = Drug excretion in dog urine assessed as conjugated form of lorazepam at 10 mg/kg, po; assay type: ADME, organism-based, Canis lupus familiaris; set-up: dose 10 mg/kg, route oral; details: in vivo
[23] = Drug excretion in dog urine assessed as conjugated form of lorazepam at 10 mg/kg, iv; assay type: ADME, organism-based, Canis lupus familiaris; set-up: dose 10 mg/kg, route intravenous; details: in vivo
[24] = Retention time of the compound; assay type: physicochemical

For `O=C1CN=C(c2ccccc2Cl)c2cc(Cl)ccc2N1` [DELORAZEPAM], the Drug excretion [1] was 60.5 %ID, the Drug excretion [2] was 28.5 %ID and the Drug excretion [3] was 58 %ID. For the same molecule, the Drug metabolism [4] was 10.7 mg.equiv, the Drug metabolism [5] was 1.6 mg.equiv and the Drug metabolism [6] was 1.7 mg.equiv. The dose excreted at 96 h [7] was 1.1%, the Drug excretion [8] was 0.4 %ID and the Drug excretion [9] was 15.3 %ID. It also gave a Drug excretion [10] of 1 %ID, a Drug excretion [11] of 2.8 %ID and a Drug excretion [12] of 1.1 %ID. The Drug excretion [13] was 2.5 %ID, the dose excreted at 96 h [14] was 2.7% and the Drug excretion [15] was 3.8 %ID. It also gave a Drug excretion [16] of 4.2 %ID, a Drug excretion [17] of 19.9 %ID and a Drug excretion [18] of 1.5 %ID. The Drug excretion [19] was 5.3 %ID, the Drug excretion [20] was 3.7 %ID and the Drug excretion [21] was 7.3 %ID. For the same molecule, the Drug excretion [22] was 13 %ID and the Drug excretion [23] was 16 %ID.
In the case of `O=C1Nc2ccc(Cl)cc2C(c2ccccc2Cl)=NC1O` (centres undefined) [LORAZEPAM], the Retention_time [24] is reported as 3.8 min.
